Reference: ChEMBL document CHEMBL5303711, “ECBD screening data for assay EOS300108” (2023)
Where a name gives a salt, the structure may show the parent alone. Calls of active or inactive are those of the source. No rule for the calls is given here.

Test: Cytotoxicity activity against human HepG2 cells assessed by CellTiter-Glo luminescent cell viability assay.
Format: toxicity, cell-based
Set-up: assay stage confirmatory assay, source tissue liver
Conditions: HepG2 cells, read-out: IC50 relative

SMILES | CC50
C#CC(=O)NCCNc1nc(C)nc(C)c1Br | 0.8 µM (active)
Cc1cnc(Nc2ccc(OCCN3CCCC3)cc2)nc1Nc1cccc(S(=O)(=O)NC(C)(C)C)c1 [FEDRATINIB] | 1.1 µM (active)
O=C(Nc1nc(-c2ccc(F)cc2)n[nH]1)c1ccco1 | 3.4 µM (active)
COc1cc(OC2CCN(C)CC2)ccc1Nc1ncc2c(n1)n(C1CCCC1)c(=O)n2C | 5 µM (active)
COc1cc2c(cc1OC(C)C)[C@H](c1ccc(Cl)cc1)N(c1ccc(N(C)C[C@H]3CC[C@H](N4CCN(C)C(=O)C4)CC3)cc1)C(=O)C2 [CGM-097] | 6.3 µM (active)
Cc1ccc(NC(=O)Nc2ccc3c(c2)N(S(C)(=O)=O)CC3)cc1F | 3.6 µM (inactive)
CO[C@H]1/C=C\C=C(\C)C(=O)NC2=CC(=O)C(NCCN(C)C)=C(C[C@@H](C)C[C@H](OC)[C@H](O)[C@@H](C)/C=C(/C)[C@@H]1OC(N)=O)C2=O | < 0.1 µM (active)
CO/N=C(/C(=O)OC)c1ccccc1COc1ccccc1C [KRESOXIM-METHYL] | 12.5 µM (active)
COc1cccc(NC(=O)Nc2nc3ccc(S(C)(=O)=O)cc3s2)c1 | 18.1 µM (inactive)
O=C1COc2cc(C(=O)Nc3nc(-c4ccccn4)cs3)ccc2N1 | 1.5 µM (active)
O[C@@H](CNCc1cc2ccccc2nc1N1CCCCC1)CN1CCCC1 | 9.8 µM (active)
CC(C)NC(=O)N1CC(Oc2ccc(-c3noc(C4CCOCC4)n3)cc2)C1 | 4.1 µM (active)
Cc1ccc(C(=O)N(CCCN)C(c2oc3cc(Cl)ccc3c(=O)c2Cc2ccccc2)C(C)C)cc1 (centres undefined) | 1.4 µM (active)
Cc1cc(-c2cc(O)ccc2Cl)cc2nnc(Nc3ccc(OCCN4CCCC4)cc3)nc12 | 1.4 µM (active)
COc1ccc(-c2nc(N3CCOCC3)c3sc(CN(C)c4ncc(C(=O)NO)cn4)cc3n2)cn1 [FIMEPINOSTAT] | < 0.1 µM (active)
COc1cc(-c2nc(-c3cccs3)no2)cc(OC)c1O | 0.4 µM (active)
COc1ccccc1S(=O)(=O)Nc1ccc2c(c1)CN(C)C(=O)N2 | 3.7 µM (active)
COc1cc(C(N)=O)ccc1NC(=O)[C@@H]1N[C@@H](CC(C)(C)C)[C@@]2(C(=O)Nc3cc(Cl)ccc32)[C@H]1c1cccc(Cl)c1F | 5.3 µM (inactive)
Cc1ccccc1OCc1n(CC(=O)OC2CC(C)CCC2C(C)C)c2ccccc2[n+]1C (centres undefined) | 4.4 µM (active)
COc1ccc(-c2ccc(CNCCNCCO)o2)cc1Cl | 11.4 µM (active)
CC(C)CN(CCS(=O)(=O)c1ccc(C(C)(C)C)cc1)C1CCN(C)CC1 | 4.4 µM (active)
COc1ccc(N(C(=O)Oc2c(C)cccc2C)c2ccnc(Nc3ccc(N4CCN(C)CC4)cc3)n2)c(OC)c1 | 3.3 µM (active)
CNCCCN1c2ccccc2CCc2ccccc21 [DESIPRAMINE HYDROCHLORIDE] | 11.4 µM (active)

SMILES | CC50
CNCCCC1c2ccccc2C=Cc2ccccc21 [PROTRIPTYLINE HYDROCHLORIDE] | 8.9 µM (active)
N#Cc1c(C2CCNCC2)cc(-c2c(O)cccc2OCC2CC2)nc1N | 5.6 µM (active)
COCC(=O)N1CCCN(Cc2ccc3c4c(cccc24)C(=O)OC3)CC1 | 13.4 µM (active)
C[C@H]1CN(C)c2ccccc2N(Cc2cc3ccccc3c(=O)[nH]2)C1 | 16.9 µM (inactive)
COc1ccc(N(C(=O)Nc2c(C)cccc2C)c2cc(Nc3ccc(N4CCN(C)CC4)cc3)ncn2)c(OC)c1 | 6.1 µM (active)
CC(C)n1nc(-c2cc3cc(O)ccc3[nH]2)c2c(N)ncnc21 | 2.6 µM (active)
Nc1ncnc2c1c(I)cn2[C@@H]1O[C@H](CO)[C@@H](O)[C@H]1O [IODOTUBERCIDIN] | 0.4 µM (active)
COc1ccccc1OCC(=O)Nc1nc(-c2ccccn2)cs1 | 2.7 µM (active)
CCn1c(Cn2ncc(Cl)c(Cl)c2=O)nc2cc(F)ccc21 | 3 µM (active)
COc1ccc2cc(S(=O)(=O)N[C@H](CC(=O)N[C@H](Cc3ccc(CN4[C@H](C)CCC[C@@H]4C)cc3)C(=O)N(C)C(C)C)c3ccc4c(c3)OCO4)ccc2c1 | 4.1 µM (active)
Cc1cc(N2CCN([C@@H](C)C(=O)Nc3ccc(C#N)cc3)CC2)nc(C(C)C)n1 | 11.2 µM (active)
COCC1CCN(Cc2ccc(C(C)C)cc(O)c2=O)CC1 | 11.8 µM (active)
Cc1cc(-c2csc(NC(=O)c3coc(S(=O)(=O)N(C)C)c3)n2)c(C)o1 | 16.5 µM (inactive)
N[C@@H](CNC(=O)COc1ccc(Cl)c2ccccc12)C1CC1 | 24.9 µM (inactive)
Cc1nc(-c2ccccc2)oc1C(=O)Nc1ccc(N2CCN(C)CC2)cn1 | 12.9 µM (active)
O=C(Nc1nccs1)c1cccc(S(=O)(=O)N2CCc3ccccc32)c1 | 8.3 µM (active)
C[C@H](O)CN1CCC(CNCc2ccc(Br)cc2)CC1 | 5.3 µM (active)
O=c1cc(-c2ccc(O)c(O)c2)oc2cc(O)cc(O)c12 [LUTEOLIN] | 9 µM (active)
CC1CCN(CCNC(=O)c2c(O)c3sccc3n(Cc3ccccc3)c2=O)CC1 | 22.3 µM (inactive)
NNc1ncnc2ccc(Br)cc12 | 2.4 µM (active)
Cc1c(CNCCCN2CCCCC2CO)oc2ccccc12 (centres undefined) | 9.8 µM (active)
COc1ccc(OC)c(S(=O)(=O)Nc2ccc3nc(S(C)(=O)=O)sc3c2)c1 | 6.9 µM (active)
CN(C)CCCNC(=O)c1ccc(-c2cc(O)c3ncccc3c2)cc1 | 8 µM (active)

SMILES | CC50
CN(c1ccccc1)S(=O)(=O)c1ccc(C(=O)N2CCN(CCOc3ccccc3)CC2)cc1 | 9.1 µM (active)
CCOc1cc(F)ccc1NC(=O)c1csc(-c2cnn(C)c2)n1 | 0.4 µM (active)
O=C(CC1Sc2ncnn2C1=O)Nc1ccc(Br)cc1 (centres undefined) | 15.3 µM (inactive)
Cc1cccc(C(=O)N[C@@H]2CN(Cc3ccccc3)C[C@H]2CN(C)C)c1 | 10 µM (active)
CNc1ccc(Br)cc1N | 4.1 µM (active)
CC1(COc2ccc3c(c2)ncn3-c2ccc3cccc(N4CCC(N)CC4)c3n2)COC1 [CRENOLANIB] | 4.4 µM (active)
COc1ccc(C[C@H]2NC[C@H](O)[C@H]2OC(C)=O)cc1 [ANISOMYCIN] | 0.3 µM (active)
CCCNC(=O)N1CC(Oc2ccc(-c3noc(-c4ccncc4)n3)cc2)C1 | 3.1 µM (active)
CN1C(=O)Cc2cc(S(=O)(=O)Nc3cccc4cccnc34)ccc21 | 6.9 µM (active)
CC(C)(C)C[C@H]1N[C@@H](C(=O)N[C@H]2CC[C@H](O)CC2)[C@H](c2cccc(Cl)c2F)[C@@]12C(=O)Nc1cc(Cl)ccc12 | 4.9 µM (active)
O=C(Nc1cc(Cl)cc2cccnc12)c1ccoc1 | 0.3 µM (active)
Cc1cccc(OC[C@@H](O)CN2CCC(C(=O)N3CCc4ccccc43)CC2)c1 | 11.3 µM (active)
CCN(CC)C(=O)c1sc2[nH]c(-c3ccccn3)nc(=O)c2c1C | 6 µM (active)
CN1CCN(c2cc3c(cc2S(=O)(=O)N2CCCCCC2)C(=O)Nc2ccccc2O3)CC1 | 11.5 µM (active)
CCCS(=O)(=O)N1CCc2ccc(NC(=O)Nc3ccc(SC)cc3)cc21 | 18.2 µM (inactive)
Cc1cccnc1N1CCN(c2cc([C@H]3C[C@@H](N)C3)nc(N)n2)CC1 | 11.1 µM (active)
Cc1nc(CCN[C@@H](C)c2ccc(S(N)(=O)=O)cc2)cs1 | 2.7 µM (active)
O=C(NCc1ccc(-n2ccnc2)nc1)c1ccnc(O[C@H]2CCOC2)c1 | 8.9 µM (active)
COc1cc2c(Nc3ccc(NC(=O)c4ccccc4)cc3)ncnc2cc1OCCCN1CCOCC1 | 3.2 µM (active)
CCC(C)NC(=O)COc1ccc(-c2nc(C(C)C)no2)cc1 (centres undefined) | 4.2 µM (active)
CC1CCN(S(=O)(=O)c2ccc(-c3nc(C#N)c(NCCCN(C)C)o3)cc2)CC1 | 5.8 µM (active)
CCN(CC)CCCNC(=O)C1CCN(c2ncc(-c3ccccc3)cn2)CC1 | 9.7 µM (active)
O=C(Nc1nnc2ccccn12)c1ccc(F)c(Cl)c1 | 2.7 µM (active)

SMILES | CC50
C[C@]1(O)C[C@@H](c2nc(-c3ccc4ccc(-c5ccccc5)nc4c3)c3c(N)nccn32)C1 [LINSITINIB] | 5.3 µM (active)
c1ccc(-n2cnc3c(Nc4cnn(C[C@H]5CCCO5)c4)ncnc32)cc1 | 5.8 µM (active)
COc1ccc(-n2ccc(CNc3ncnc(N)c3Cl)n2)cc1 | 3.1 µM (active)
Cc1ccn(-c2cc(N3CCN(C(=O)Nc4ccc5c(c4)OCCO5)CC3)ncn2)n1 | 10.7 µM (active)
CCOc1ccc(C(=O)N2CCN(Cc3noc(-c4ccc(F)cc4)n3)CC2)cc1 | 4.8 µM (active)
c1ccc2c(NCCCCCCNc3c4c(nc5ccccc35)CCCC4)c3c(nc2c1)CCCC3 | 1.2 µM (active)
COC(=O)C1=C(C)NC(C)=C(C(=O)OCC(C)C)C1c1ccccc1[N+](=O)[O-] (centres undefined) [NISOLDIPINE] | 11.1 µM (active)
CCCN1CCN(CCCNC(=O)C2CCN(c3nc(-c4ccc(OC)cc4)no3)CC2)CC1 | 13 µM (active)
O=S(=O)(c1ccc(S(=O)(=O)N2CCOc3ccccc32)cc1)N1CCCC1 | 4.2 µM (active)
O=c1cc(-c2ccc(O)c(O)c2)oc2cc(O[C@@H]3O[C@H](CO)[C@@H](O)[C@H](O)[C@H]3O)cc(O)c12 [GALUTEOLIN] | 5.7 µM (inactive)
CCOc1cccc(OCC)c2c(C)nc(C)c1-2 | 26.6 µM (inactive)
CC[C@@H](N)CNc1ccnc(-c2cc(-c3cnn(C)c3)ccc2O)n1 | 1.2 µM (active)
COc1ccccc1OCCOCCOCCOc1ccccc1OC | 12.6 µM (inactive)
COc1ccc(Nc2nc(NCCCO)c3ccccc3n2)cc1 | 8.2 µM (active)
CC[C@@H]1C(=O)N(C)c2cnc(Nc3ccc(C(=O)NC4CCN(C)CC4)cc3OC)nc2N1C1CCCC1 [BI-2536] | 1.2 µM (active)
COc1ccc(-c2c[nH]c3nccc(-c4ccsc4)c23)c(OC)c1 | 7.9 µM (active)
CCS(=O)(=O)c1ccc(CC(=O)Nc2cc(Cl)c(-c3ccccc3OC(F)(F)F)c(Cl)c2)cc1 | 12.7 µM (inactive)
N#Cc1ccc(NC(=O)Cn2c(=O)ccn(Cc3ccccc3)c2=O)cc1 | 13.9 µM (inactive)
CC1(C)CC[C@]2(C(=O)O)CC[C@]3(C)[C@H](C(=O)C=C4[C@@]5(C)C=C(C#N)C(=O)C(C)(C)[C@@H]5CC[C@]43C)[C@@H]2C1 [BARDOXOLONE] | 3.7 µM (active)
Cn1ncc2cc(-c3cnc(N)c(Cl)c3N3CCC4(CCNC4=O)CC3)ccc21 | 5.7 µM (active)
